pIC50: −log10 of the molar value. Read-outs that look alike come from different tables or passages of the source.
Assays:
[1] = test system: phosphorylated AKT Ser473 (pAKT S473), mTORC2 activity, PC3 cells; test: mTOR target engagement assay, immunofluorescent cell-based, pAKT S473 readout (mTORC2 activity)
Procedure, shortened: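 After blocking, cells were stained overnight at 4 °C with anti-pAKT S473 antibody, then a fluorescent secondary; inhibition was read as reduced fluorescence intensity.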

[2] = test system: phosphorylated 4E-BP1 Thr37/46 (p4E-BP1 Thr37/46), mTORC1 activity, PC3 cells; test: mTOR target engagement assay, immunofluorescent cell-based, p4E-BP1 Thr37/46 readout (mTORC1 activity); details: read-out: p4E-BP1 Thr37/46 IC50
Procedure, shortened: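 Seed PC3 cells overnight; treat with compound dilutions for ninety minutes at 37° C; fix with glyoxal and block; stain with anti-p4E-BP1 Thr37/46 overnight at 4° C, then fluorescent secondary; read fluorescence and fit IC50 against DMSO-only controls.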

[3] = Homo sapiens, PC-3, PC3 cells, compound treatment ninety minutes at 37° C.
[4] = Homo sapiens, PC-3, Table 3-1, PC3 cells
[5] = Homo sapiens, PC-3, Table 6-1, PC3 cells

Q: Which results are given for `COc1ccc(-c2ccc(-c3cnn4c(N)cc([C@@H]5C[C@H]6CC[C@@H](C5)N6C(=O)c5nnc[nH]5)nc34)cn2)cc1CO` [Compound 2.6, ((1R,3s,5S)-3-(7-amino-3-(6-(3-(hydroxymethyl)-4-methoxyphenyl)pyridin-3-yl)pyrazolo[1,5-a]pyrimidin-5-yl)-8-azabicyclo[3.2.1]octan-8-yl)(4H-1,2,4-triazol-3-yl)methanone]?
A: pIC50 [1, 3]: 6.00 to 7.00; pIC50 [2, 3]: 6.00 to 7.00

Q: How did the pIC50 ([1]; Table 3-1, PC3 cells) turn out when “1-((1R,3s,5S)-3-(7-amino-3-(6-(4-methoxy-(D3)-phenyl)pyridin-3-yl)-6-(methylsulfonyl)pyrazolo[1,5-a]pyrimidin-5-yl)-8-azabicyclo[3.2.1]octan-8-yl)-2-hydroxyethanone [Compound 3.67]” was run?
A: 7.00 to 9.00

Q: And the pIC50 ([2]; Table 3-1, PC3 cells)?
A: 6.00 to 7.00

Q: How did the pIC50 [1, 4] turn out when `CS(=O)(=O)c1c([C@@H]2C[C@H]3CC[C@@H](C2)N3C(=O)c2ncccc2O)nc2c(-c3ccc(-c4ccccc4)nc3)cnn2c1N` [Compound 3.13] was run?
A: 6.00 to 7.00

Q: What about the pIC50 [2, 4] of the same molecule?
A: 6.00 to 7.00

Q: Which results are given for `CC(=O)c1c([C@@H]2C[C@H]3CC[C@@H](C2)N3C(=O)c2nnc[nH]2)nc2c(-c3ccc(C#CC4CC4)nc3)cnn2c1N` [Compound 8.60, 1-(5-((1R,3s,5S)-8-(4H-1,2,4-triazole-3-carbonyl)-8-azabicyclo[3.2.1]octan-3-yl)-7-amino-3-(6-(cyclopropylethynyl)pyridin-3-yl)pyrazolo[1,5-a]pyrimidin-6-yl)ethanone]?
A: pIC50 ([1]; Homo sapiens, PC-3, PC3 cells): 6.00 to 7.00; pIC50 ([2]; Homo sapiens, PC-3, PC3 cells): 6.00 to 7.00

Q: With `CNC(=O)Nc1ccc(-c2cnn3c(N)c(C(C)=O)c([C@@H]4C[C@H]5CC[C@@H](C4)N5C(=O)c4ncn[nH]4)nc23)cn1` [Compound 8.75, 1-(5-(5-((1R,3s,5S)-8-(1H-1,2,4-triazole-5-carbonyl)-8-azabicyclo[3.2.1]octan-3-yl)-6-acetyl-7-aminopyrazolo[1,5-a]pyrimidin-3-yl)pyridin-2-yl)-3-methylurea] as the molecule, how does the pIC50 ([1]; Homo sapiens, PC-3, PC3 cells) read?
A: 7.00 to 9.00

Q: What about the pIC50 ([2]; Homo sapiens, PC-3, PC3 cells) of the same molecule?
A: 6.00 to 7.00

Q: How did the pIC50 [1, 3] turn out when `CC(=O)c1c([C@@H]2C[C@H]3CC[C@@H](C2)N3C(=O)c2cc(N)n[nH]2)nc2c(-c3ccc(-c4cnn(C)c4)nc3)cnn2c1N` [Compound 1.1.176, 1-(7-amino-5-((1R,3s,5S)-8-(3-amino-1H-pyrazole-5-carbonyl)-8-azabicyclo[3.2.1]octan-3-yl)-3-(6-(1-methyl-1H-pyrazol-4-yl)pyridin-3-yl)pyrazolo[1,5-a]pyrimidin-6-yl)ethanone] was run?
A: 6.00 to 7.00

Q: And the pIC50 [2, 3]?
A: 6.00 to 7.00

Q: With `C[C@H](O)C(=O)N1[C@@H]2CC[C@H]1C[C@H](c1nc3c(-c4ccc(-c5ccccc5)nc4)cnn3c(N)c1S(C)(=O)=O)C2` [Compound 3.27] as the molecule, how does the pIC50 [1, 4] read?
A: 6.00 to 7.00

Q: What about the pIC50 [2, 4] of the same molecule?
A: 6.00 to 7.00

Q: How did the pIC50 [1, 3] turn out when `CC(=O)c1c([C@@H]2C[C@H]3CC[C@@H](C2)N3C(=O)c2nnc[nH]2)nc2c(-c3ccc(C(O)CC(C)C)nc3)cnn2c1N` (stereo partly drawn) [Compound 7.6, 1-(5-((1R,3s,5S)-8-(4H-1,2,4-triazole-3-carbonyl)-8-azabicyclo[3.2.1]octan-3-yl)-7-amino-3-(6-(1-hydroxy-3-methylbutyl)pyridin-3-yl)pyrazolo[1,5-a]pyrimidin-6-yl)ethanone] was run?
A: 5.00 to 6.00

Q: What about the pIC50 [2, 3] of the same molecule?
A: 6.00 to 7.00

Q: With `CC(=O)c1c([C@@H]2C[C@H]3CC[C@@H](C2)N3C(=O)c2nnc[nH]2)nc2c(-c3ccc(-c4ccn(C)n4)nc3)cnn2c1N` [Compound 1.1.55, 1-(5-((1R,3s,5S)-8-(4H-1,2,4-triazole-3-carbonyl)-8-azabicyclo[3.2.1]octan-3-yl)-7-amino-3-(6-(1-methyl-1H-pyrazol-3-yl)pyridin-3-yl)pyrazolo[1,5-a]pyrimidin-6-yl)ethanone] as the molecule, how does the pIC50 [1, 3] read?
A: 7.00 to 9.00

Q: What about the pIC50 [2, 3] of the same molecule?
A: 7.00 to 9.00

Q: With `CC(=O)c1c([C@@H]2C[C@H]3CC[C@@H](C2)N3C(=O)c2n[nH]c(N)n2)nc2c(-c3ccc(-c4ccccc4)nc3)cnn2c1N` [Compound 1.1.140, 1-(7-amino-5-((1R,3s,5S)-8-(5-amino-1H-1,2,4-triazole-3-carbonyl)-8-azabicyclo[3.2.1]octan-3-yl)-3-(6-phenylpyridin-3-yl)pyrazolo[1,5-a]pyrimidin-6-yl)ethanone] as the molecule, how does the pIC50 [1, 3] read?
A: 7.00 to 9.00

Q: And the pIC50 [2, 3]?
A: 7.00 to 9.00

Q: With `CCN/C(=N\CCCN(C)C)n1ncc(C(=O)N2[C@@H]3CC[C@H]2C[C@H](c2nc4c(-c5ccc(-c6ccccc6F)nc5)cnn4c(N)c2S(C)(=O)=O)C3)n1` [Compound 8.46, (E)-4-((1R,3s,5S)-3-(7-amino-3-(6-(2-fluorophenyl)pyridin-3-yl)-6-(methylsulfonyl)pyrazolo[1,5-a]pyrimidin-5-yl)-8-azabicyclo[3.2.1]octane-8-carbonyl)-N′-(3-(dimethylamino)propyl)-N-ethyl-2H-1,2,3-triazole-2-carboximidamide] as the molecule, how does the pIC50 ([1]; Homo sapiens, PC-3, PC3 cells) read?
A: 7.00 to 9.00

Q: And the pIC50 ([2]; Homo sapiens, PC-3, PC3 cells)?
A: 6.00 to 7.00

Q: `Cc1nnc(C(=O)N2[C@@H]3CC[C@H]2C[C@H](c2nc4c(-c5ccc(-c6ccccc6F)nc5)cnn4c(N)c2S(C)(=O)=O)C3)[nH]1` [Compound 3.133, ((1R,3s,5S)-3-(7-amino-3-(6-(2-fluorophenyl)pyridin-3-yl)-6-(methylsulfonyl)pyrazolo[1,5-a]pyrimidin-5-yl)-8-azabicyclo[3.2.1]octan-8-yl)(5-methyl-4H-1,2,4-triazol-3-yl)methanone] was tested. Which pIC50 [1, 4] did it give?
A: 7.00 to 9.00

Q: And the pIC50 [2, 4]?
A: 7.00 to 9.00

Q: What does the source list for `Nc1c(C2CC2)c([C@H]2CC3CC[C@H](C2)N3C(=O)c2nnc[nH]2)nc2c(-c3cnc4c(c3)CCC4O)cnn12` (stereo partly drawn) [Compound 7.61, ((1R,3s,5S)-3-(7-amino-6-cyclopropyl-3-(7-hydroxy-6,7-dihydro-5H-cyclopenta[b]pyridin-3-yl)pyrazolo[1,5-a]pyrimidin-5-yl)-8-azabicyclo[3.2.1]octan-8-yl)(4H-1,2,4-triazol-3-yl)methanone]?
A: pIC50 ([1]; Homo sapiens, PC-3, PC3 cells): 7.00 to 9.00; pIC50 ([2]; Homo sapiens, PC-3, PC3 cells): 7.00 to 9.00

Q: Which results are given for `CCc1c([C@@H]2C[C@H]3CC[C@@H](C2)N3C(=O)CO)nc2c(-c3ccc(-c4ncc[nH]4)nc3)cnn2c1N` [Compound 6.5, 1-((1R,3s,5S)-3-(3-(6-(1H-imidazol-2-yl)pyridin-3-yl)-7-amino-6-ethylpyrazolo[1,5-a]pyrimidin-5-yl)-8-azabicyclo[3.2.1]octan-8-yl)-2-hydroxyethanone]?
A: pIC50 [1, 5]: 7.00 to 9.00; pIC50 [2, 5]: 7.00 to 9.00

Q: How did the pIC50 [1, 4] turn out when `CS(=O)(=O)c1c([C@@H]2C[C@H]3CC[C@@H](C2)N3C(=O)c2nnc[nH]2)nc2c(-c3ccc(-c4ncccc4F)nc3)cnn2c1N` [Compound 3.48, ((1R,3s,5S)-3-(7-amino-3-(3′-fluoro-2,2′-bipyridin-5-yl)-6-(methylsulfonyl)pyrazolo[1,5-a]pyrimidin-5-yl)-8-azabicyclo[3.2.1]octan-8-yl)(4H-1,2,4-triazol-3-yl)methanone] was run?
A: 7.00 to 9.00

Q: What about the pIC50 [2, 4] of the same molecule?
A: 7.00 to 9.00

Q: `CC(=O)c1c([C@@H]2C[C@H]3CC[C@@H](C2)N3C(=O)c2cn[nH]c2N)nc2c(-c3ccc(C(C)(C)O)nc3)cnn2c1N` [Compound 7.15, 1-(7-amino-5-((1R,3s,5S)-8-(5-amino-1H-pyrazole-4-carbonyl)-8-azabicyclo[3.2.1]octan-3-yl)-3-(6-(2-hydroxypropan-2-yl)pyridin-3-yl)pyrazolo[1,5-a]pyrimidin-6-yl)ethanone] was tested. Which pIC50 [1, 3] did it give?
A: 6.00 to 7.00

Q: What about the pIC50 [2, 3] of the same molecule?
A: 6.00 to 7.00

Q: With `CC(=O)c1c([C@@H]2C[C@H]3CC[C@@H](C2)N3C(=O)c2nnc[nH]2)nc2c(-c3ccc(-c4nn(C)cc4F)nc3)cnn2c1N` [Compound 1.1.106, 1-(5-((1R,3s,5S)-8-(4H-1,2,4-triazole-3-carbonyl)-8-azabicyclo[3.2.1]octan-3-yl)-7-amino-3-(6-(4-fluoro-1-methyl-1H-pyrazol-3-yl)pyridin-3-yl)pyrazolo[1,5-a]pyrimidin-6-yl)ethanone] as the molecule, how does the pIC50 [1, 3] read?
A: 7.00 to 9.00

Q: And the pIC50 [2, 3]?
A: 7.00 to 9.00

— patent US9227971B2, “Pyrazolo[1,5-a]pyrimidine compounds as mTOR inhibitors” (Merck Sharp & Dohme Corp., priority 2010, dated 2016)
